Like-named read-outs stand apart in the source and are kept apart here. Where a SMILES comes first, the peptide text is derived from it. The star is where a group is joined. X1 = CC(C)CCCC(C)C1CCC2C3CC=C4CC(OC(=O)CCC(=O)*)CCC4(C)C3CCC12C A value given as a limit tells only on which side of the number the result lay.

The nature of series [1]: Cytotoxicity test in HEp-2 cells (CCK8 cell viability). The series is classed as cell-based. As to conditions: human. Put shortly: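 Compound dilutions (final DMSO 0.5%) were applied for 1 day to HEp-2 cells plated at 30,000 per well the day before. CCK8 signal gave survival relative to cell and medium controls, and a four-parameter log(inhibitor)-response fit yielded CC50.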

The test system of another series is RSV A long virus strain. Format: cell-based. Put shortly:
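Plaque reduction in HEp-2 cells: virus (100 PFU/well) and serially diluted compound (8 concentrations) mixed 1 h, adsorbed 2 h, then overlaid with 0.8% CMC medium plus compound for 1 day at 37 °C. Spots counted after anti-RSV immunostaining; IC50 from normalized inhibition, CC50 from viability data.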

Where [2] appears, read: HEp-2 cells, CCK8, 1 day, read-out: CC50.
The mark [3] stands for this setting: RSV A long virus strain, HEp-2 cells, plaque reduction, 1 day, read-out: IC50.

In general, CC50 refers to the concentration giving 50% cytotoxicity. In general, IC50 refers to the concentration that gives 50% inhibition. For `CC[C@H](C)[C@H](NC(=O)[C@H](CCCNC(=N)N)NC(=O)[C@H](CCCNC(=N)N)NC(=O)[C@H](CCCNC(=N)N)NC(=O)[C@H](CC(N)=O)NC(=O)[C@@H](NC(=O)[C@H](CCC(=O)O)NC(=O)[C@H](Cc1ccccc1)NC(C)=O)C(C)C)C(=O)N[C@@H](CCC(=O)O)C(=O)N[C@@H](CCC(N)=O)C(=O)N[C@@H](CO)C(=O)N[C@@H](CC(C)C)C(=O)N[C@@H](CCC(=O)O)C(=O)N[C@@H](CCCCN)C(=O)N[C@@H](CO)C(=O)N[C@@H](CC(C)C)C(=O)N[C@@H](CCC(=O)O)C(=O)N[C@@H](CO)C(=O)N[C@@H](CC(C)C)C(=O)N[C@@H](CCC(=O)O)C(=O)N[C@@H](CCC(=O)O)C(=O)N[C@@H](CCC(=O)O)C(=O)N[C@@H](CCC(=O)O)C(=O)N[C@@H](Cc1c[nH]cn1)C(=O)N[C@@H](CO)C(=O)N[C@@H](CC(=O)O)C(=O)N[C@@H](CCCCN)C(=O)N[C@@H](CCCCN)C(=O)N[C@@H](CC(C)C)C(=O)N[C@@H](Cc1c[nH]cn1)C(=O)N[C@@H](CC(N)=O)C(=O)N[C@@H](CCC(=O)O)C(=O)N[C@@H](CC(C)C)C(=O)N[C@@H](Cc1c[nH]cn1)C(N)=O` [Compound 46] (Ac-FEVNRRRIEQSLEKSLESLEEEEHSDKKLHNELH-NH2), the half-maximal cytotoxic concentration (CC50) at 1 day in series [1] (setting [2]) was above 8 µM. In the series on RSV A long virus strain (setting [3]), the half-maximal inhibitory concentration (IC50) is above 8 µM.
As to `CC[C@H](C)[C@H](NC(=O)[C@H](Cc1ccccc1)NC(=O)[C@H](CCCCN)NC(=O)[C@H](CC(C)C)NC(=O)[C@H](CO)NC(=O)[C@H](CCC(N)=O)NC(=O)[C@H](CCC(=O)O)NC(=O)[C@@H](NC(=O)[C@H](CCCCN)NC(=O)[C@H](CCCCN)NC(=O)[C@H](CC(N)=O)NC(=O)[C@@H](NC(=O)[C@H](CCC(N)=O)NC(=O)[C@H](CCC(=O)O)NC(=O)[C@H](CC(C)C)NC(=O)[C@H](CO)NC(C)=O)C(C)C)[C@@H](C)CC)C(=O)N[C@@H](CCC(=O)O)C(=O)N[C@@H](CCCCN)C(=O)N[C@@H](CO)C(=O)N[C@@H](CC(=O)O)C(=O)N[C@@H](CCCCN)C(=O)N[C@@H](CC(C)C)C(=O)N[C@@H](CC(C)C)C(=O)N[C@@H](CCC(=O)O)C(=O)N[C@@H](CC(N)=O)C(=O)NCC(=O)N[C@@H](CO)C(=O)NCC(=O)N[C@@H](CO)C(=O)NCC(=O)N[C@@H](CCCCNC(=O)CCC(=O)OC1CCC2(C)C(=CCC3C2CCC2(C)C(C(C)CCCC(C)C)CCC32)C1)C(N)=O` (stereo partly shown) [Positive polypeptide 1, reference compound] (Ac-SLEQVNKKIEQSLKFIEKSDKLLENGSGSGK(X1)-NH2), in series [1] (setting [2]), the CC50 at 1 day was 3.69 µM. In addition, the 50% inhibitory concentration (IC50) with RSV A long virus strain (setting [3]) was determined as 0.15 µM.
`CC[C@H](C)[C@H](NC(C)=O)C(=O)N[C@@H](CCC(=O)O)C(=O)N[C@@H](CCC(N)=O)C(=O)N[C@H](C(=O)N[C@@H](CC(N)=O)C(=O)N[C@@H](CCCCN)C(=O)N[C@@H](CCCCN)C(=O)N[C@H](C(=O)N[C@@H](CCC(=O)O)C(=O)N[C@@H](CCC(N)=O)C(=O)N[C@@H](CO)C(=O)N[C@@H](CC(C)C)C(=O)N[C@@H](CCCCN)C(=O)N[C@@H](Cc1ccccc1)C(=O)N[C@H](C(=O)N[C@@H](CCC(=O)O)C(=O)N[C@@H](CCCCN)C(=O)N[C@@H](CO)C(=O)N[C@@H](CC(=O)O)C(=O)N[C@@H](CCCCN)C(=O)N[C@@H](CC(C)C)C(=O)N[C@@H](CC(C)C)C(=O)N[C@@H](CCC(=O)O)C(=O)N[C@@H](CC(N)=O)C(=O)N[C@H](C(=O)N[C@@H](CC(N)=O)C(=O)N[C@@H](CCCCN)C(=O)NCC(=O)N[C@@H](CCCCN)C(N)=O)C(C)C)[C@@H](C)CC)[C@@H](C)CC)C(C)C` [Positive polypeptide 2, reference compound] (Ac-IEQVNKKIEQSLKFIEKSDKLLENVNKGK-NH2): the half-maximal cytotoxic concentration (CC50) at 1 day in series [1] (setting [2]) was above 10 µM. Further, in the series on RSV A long virus strain (setting [3]), the half-inhibitory concentration (IC50) is above 0.3 µM.
In the same order, the values of `CC[C@H](C)[C@H](NC(C)=O)C(=O)N[C@@H](CCC(=O)O)C(=O)N[C@@H](CCC(=O)O)C(=O)N[C@H](C(=O)N[C@@H](CC(N)=O)C(=O)N[C@@H](CCCCN)C(=O)N[C@@H](CCCCN)C(=O)N[C@H](C(=O)N[C@@H](CCC(=O)O)C(=O)N[C@@H](CCC(=O)O)C(=O)N[C@@H](CO)C(=O)N[C@@H](CC(C)C)C(=O)N[C@@H](CCCCN)C(=O)N[C@@H](CCCCN)C(=O)N[C@H](C(=O)N[C@@H](CCC(=O)O)C(=O)N[C@@H](CCC(=O)O)C(=O)N[C@@H](CO)C(=O)N[C@@H](CC(=O)O)C(=O)N[C@@H](CCCCN)C(=O)N[C@@H](CCCCN)C(=O)N[C@@H](CC(C)C)C(=O)N[C@@H](CCC(=O)O)C(=O)N[C@@H](CCC(=O)O)C(=O)N[C@H](C(=O)N[C@@H](CC(N)=O)C(=O)N[C@@H](CCCCN)C(=O)N[C@@H](CCCCN)C(=O)N[C@@H](CCCCN)C(=O)N[C@@H](CCC(=O)O)C(=O)N[C@@H](C)C(=O)N[C@@H](C)C(=O)N[C@@H](C)C(=O)N[C@@H](CCCCN)C(=O)N[C@@H](CCCCNC(=O)CCC(=O)OC1CCC2(C)C(=CCC3C2CCC2(C)C(C(C)CCCC(C)C)CCC32)C1)C(N)=O)C(C)C)[C@@H](C)CC)[C@@H](C)CC)C(C)C` (stereo partly shown) [Positive polypeptide 3, reference compound] (Ac-IEEVNKKIEESLKKIEESDKKLEEVNKKKEAAAKK(X1)-NH2) are above 10 µM and above 0.3 µM.
`CC[C@H](C)[C@H](NC(C)=O)C(=O)N[C@@H](CCC(=O)O)C(=O)N[C@@H](CCC(N)=O)C(=O)N[C@H](C(=O)N[C@@H](CC(N)=O)C(=O)N[C@@H](CCCCN)C(=O)N[C@@H](CCCCN)C(=O)N[C@H](C(=O)N[C@@H](CCC(=O)O)C(=O)N[C@@H](CCC(N)=O)C(=O)N[C@@H](CO)C(=O)N[C@@H](CC(C)C)C(=O)N[C@@H](CCCCN)C(=O)N[C@@H](Cc1ccccc1)C(=O)N[C@H](C(=O)N[C@@H](CCC(=O)O)C(=O)N[C@@H](CCCCN)C(=O)N[C@@H](CO)C(=O)N[C@@H](CC(=O)O)C(=O)N[C@@H](CCCCN)C(=O)N[C@@H](CC(C)C)C(=O)N[C@@H](CC(C)C)C(=O)N[C@@H](CCC(=O)O)C(=O)N[C@@H](CC(N)=O)C(=O)N[C@H](C(=O)N[C@@H](CC(N)=O)C(=O)N[C@@H](CCCCN)C(=O)NCC(=O)N[C@@H](CCCCN)C(=O)N[C@@H](CS)C(=O)N[C@@H](CCC(=O)O)C(=O)N[C@@H](C)C(=O)N[C@@H](C)C(=O)N[C@@H](C)C(=O)N[C@@H](CCCCN)C(=O)N[C@@H](CCCCNC(=O)CCC(=O)OC1CCC2(C)C(=CCC3C2CCC2(C)C(C(C)CCCC(C)C)CCC32)C1)C(N)=O)C(C)C)[C@@H](C)CC)[C@@H](C)CC)C(C)C` (stereo partly shown) [Positive polypeptide 4, reference compound] (Ac-IEQVNKKIEQSLKFIEKSDKLLENVNKGKCEAAAKK(X1)-NH2): the CC50 at 1 day in series [1] (setting [2]) worked out at 4.62 µM. In the series on RSV A long virus strain (setting [3]), the IC50 was found to be 0.19 µM.
For `CC[C@H](C)[C@H](NC(=O)[C@H](Cc1ccccc1)NC(=O)[C@H](CCCCN)NC(=O)[C@H](CC(C)C)NC(=O)[C@H](CO)NC(=O)[C@H](CCC(N)=O)NC(=O)[C@H](CCC(=O)O)NC(=O)[C@@H](NC(=O)[C@H](CCCCN)NC(=O)[C@H](CCCCN)NC(=O)[C@H](CC(N)=O)NC(=O)[C@@H](NC(=O)[C@H](CCC(N)=O)NC(=O)[C@H](CCC(=O)O)NC(=O)[C@H](CC(C)C)NC(C)=O)C(C)C)[C@@H](C)CC)C(=O)N[C@@H](CCC(=O)O)C(=O)N[C@@H](CCCCN)C(=O)N[C@@H](CO)C(=O)N[C@@H](CC(=O)O)C(=O)N[C@@H](CCCCN)C(=O)N[C@@H](CC(C)C)C(=O)N[C@@H](CC(C)C)C(=O)N[C@@H](CCC(=O)O)C(=O)N[C@@H](CC(N)=O)C(=O)N[C@H](C(=O)N[C@@H](CC(N)=O)C(=O)N[C@@H](CCCCN)C(=O)NCC(=O)N[C@@H](CCCCN)C(=O)N[C@@H](CS)C(=O)N[C@@H](CCC(=O)O)C(=O)N[C@@H](C)C(=O)N[C@@H](C)C(=O)N[C@@H](C)C(=O)N[C@@H](CCCCN)C(=O)N[C@@H](CCCCNC(=O)CCC(=O)OC1CCC2(C)C(=CCC3C2CCC2(C)C(C(C)CCCC(C)C)CCC32)C1)C(N)=O)C(C)C` (stereo partly shown) [Positive polypeptide 5, reference compound] (Ac-LEQVNKKIEQSLKFIEKSDKLLENVNKGKCEAAAKK(X1)-NH2), in series [1] (setting [2]), the cytotoxic concentration (CC50) at 1 day was determined as 3.72 µM. Further, the IC50 in the series with RSV A long virus strain (setting [3]) was above 0.3 µM.
Consider `CC[C@H](C)[C@H](NC(=O)[C@H](C)NC(=O)[C@H](C)NC(=O)[C@H](CC(C)C)NC(=O)[C@H](CO)NC(=O)[C@H](CCC(N)=O)NC(=O)[C@H](CC(N)=O)NC(=O)[C@@H](NC(=O)[C@H](CCCCN)NC(=O)[C@H](CCC(=O)O)NC(=O)[C@H](CC(N)=O)NC(=O)[C@@H](NC(=O)[C@H](CCC(N)=O)NC(=O)[C@H](CO)NC(=O)[C@@H](NC(=O)[C@H](CO)NC(=O)[C@H](C)NC(=O)[C@H](CC(=O)O)NC(=O)[C@H](Cc1ccccc1)NC(=O)[C@H](CCC(=O)O)NC(=O)[C@H](CC(=O)O)NC(=O)[C@H](CO)NC(=O)[C@@H]1CCCN1C(=O)[C@H](Cc1ccccc1)NC(=O)[C@@H](NC(C)=O)C(C)C)[C@@H](C)CC)C(C)C)[C@@H](C)CC)C(=O)N[C@@H](CCCNC(=N)N)C(=O)N[C@@H](CCCCN)C(=O)N[C@@H](CO)C(=O)N[C@@H](CC(=O)O)C(=O)N[C@@H](CCC(=O)O)C(=O)N[C@@H](CC(C)C)C(=O)N[C@@H](CC(C)C)C(=O)N[C@@H](Cc1c[nH]cn1)C(=O)N[C@@H](CC(N)=O)C(=O)N[C@H](C(N)=O)C(C)C` [Positive polypeptide 6, reference compound] (Ac-VFPSDEFDASISQVNEKINQSLAAIRKSDELLHNV-NH2), for which, in series [1] (setting [2]), the CC50 at 1 day was above 10 µM. Moreover, the IC50 in the series on RSV A long virus strain (setting [3]) was above 0.3 µM.
For “Ac-FDASISQVNEKINQSLAFIRKSDELLHNVNAGKSTTEAAAKK(X1)-NH2 [Positive polypeptide 7, reference compound]”, in series [1] (setting [2]), the CC50 at 1 day is above 10 µM. For the same compound, the concentration for half-maximal inhibition (IC50) in the series on RSV A long virus strain (setting [3]) is above 0.3 µM.
In the same order, the values of “Ac-FDFDEFDASISQVNEKINESLAFIRLAFIRKSDELLEAAAKK-NH2 [Compound 24]” are above 8 µM and 2.65 µM.
In the case of “Ac-SLEQVNKINEKINKISQSLKKIEESDKKSDEVNAGLEAAAKK-NH2 [Compound 48]”, the CC50 at 1 day in series [1] was above 8 µM. Besides, the half-inhibitory concentration (IC50) with RSV A long virus strain was above 8 µM.
In series [1], “Ac-SLEQVNKINKKIDKIEESLKKIEESDKKSLEVNKKLEAAAKK-NH2 [Compound 47]” registered a cytotoxic concentration (CC50) at 1 day above 8 µM. Moreover, the IC50 in the series on RSV A long virus strain was above 8 µM.
